Patent US5672715A, “Herbicidal substituted 3-aryl-pyrazoles” (Monsanto Company, priority 1995, dated 1997)

Tests used:
Format in all cases: in vivo
Rape [1] = test: post-emergence herbicide test; settings: post-emergence, 0.25 lb/A; read-out: % plant inhibition
Outline: (§1)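 Herbicidal effect measured as percent inhibition of each plant species after spraying. Application: atomizer, 170.3 kPa, 1870 L/Ha, about 0.4% emulsifier, to plants aged two to three weeks in greenhouse soil pans.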

Wheat [2] = test: post-emergence herbicide test; settings: Triticum aestivum, post-emergence, 0.25 lb/A; read-out: % plant inhibition
Outline: as §1

Wild Oats [3] = test: post-emergence herbicide test; settings: Avena fatua, post-emergence, 0.25 lb/A; read-out: % plant inhibition
Outline: as §1

Cocklebur [4] = test: post-emergence herbicide test; settings: Xanthium strumarium, post-emergence, 0.25 lb/A; read-out: % plant inhibition
Outline: as §1

Seedling Johnsongrass [5] = test: post-emergence herbicide test; settings: Sorghum halepense, post-emergence, 0.25 lb/A; read-out: % plant inhibition
Outline: as §1

Common Chickweed [6] = test: post-emergence herbicide test; settings: post-emergence, 0.25 lb/A; read-out: % plant inhibition
Outline: as §1

Blackgrass [7] = test: post-emergence herbicide test; settings: Alopecurus myosuroides, post-emergence, 0.25 lb/A; read-out: % plant inhibition
Outline: as §1

Corn [8] = test: post-emergence herbicide test; settings: Zea mays, post-emergence, 0.25 lb/A; read-out: % plant inhibition
Outline: as §1

Morning Glory [9] = test: post-emergence herbicide test; settings: Ipomoea, post-emergence, 0.25 lb/A; read-out: % plant inhibition
Outline: as §1

Green Foxtail [10] = test: post-emergence herbicide test; settings: Setaria viridis, post-emergence, 0.25 lb/A; read-out: % plant inhibition
Outline: as §1

Birdseye Speedwell [11] = test: post-emergence herbicide test; settings: post-emergence, 0.25 lb/A; read-out: % plant inhibition
Outline: as §1

Downy Brome [12] = test: post-emergence herbicide test; settings: Bromus tectorum, post-emergence, 0.25 lb/A; read-out: % plant inhibition
Outline: as §1

Barnyardgrass [13] = test: post-emergence herbicide test; settings: Echinochloa crus-galli, post-emergence, 0.25 lb/A; read-out: % plant inhibition
Outline: as §1

Giant Foxtail [14] = test: post-emergence herbicide test; settings: Setaria faberi, post-emergence, 0.25 lb/A; read-out: % plant inhibition
Outline: as §1

Velvetleaf [15] = test: post-emergence herbicide test; settings: Abutilon theophrasti, post-emergence, 0.25 lb/A; read-out: % plant inhibition
Outline: as §1

Soybean [16] = test: post-emergence herbicide test; settings: Glycine max, post-emergence, 0.25 lb/A; read-out: % plant inhibition
Outline: as §1

Bedstraw Catchweed [17] = test: post-emergence herbicide test; settings: Galium aparine, post-emergence, 0.25 lb/A; read-out: % plant inhibition
Outline: as §1

Rape [18] = test: pre-emergence herbicide test; settings: pre-emergence, 0.25 lb/A; read-out: % plant inhibition
Outline: (§2)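 Known amounts of active ingredient went into the cover soil over seeds sown in pans, either before or after the layer was spread. An initial 1/4 inch overhead irrigation was given in some cases; otherwise pans were subirrigated. Rating was % inhibition at ~14 days.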

Wheat [19] = test: pre-emergence herbicide test; settings: Triticum aestivum, pre-emergence, 0.25 lb/A; read-out: % plant inhibition
Outline: as §2

Wild Oats [20] = test: pre-emergence herbicide test; settings: Avena fatua, pre-emergence, 0.25 lb/A; read-out: % plant inhibition
Outline: as §2

Cocklebur [21] = test: pre-emergence herbicide test; settings: Xanthium strumarium, pre-emergence, 0.25 lb/A; read-out: % plant inhibition
Outline: as §2

Seedling Johnsongrass [22] = test: pre-emergence herbicide test; settings: Sorghum halepense, pre-emergence, 0.25 lb/A; read-out: % plant inhibition
Outline: as §2

Common Chickweed [23] = test: pre-emergence herbicide test; settings: pre-emergence, 0.25 lb/A; read-out: % plant inhibition
Outline: as §2

Blackgrass [24] = test: pre-emergence herbicide test; settings: Alopecurus myosuroides, pre-emergence, 0.25 lb/A; read-out: % plant inhibition
Outline: as §2

Corn [25] = test: pre-emergence herbicide test; settings: Zea mays, pre-emergence, 0.25 lb/A; read-out: % plant inhibition
Outline: as §2

Morning Glory [26] = test: pre-emergence herbicide test; settings: Ipomoea, pre-emergence, 0.25 lb/A; read-out: % plant inhibition
Outline: as §2

Green Foxtail [27] = test: pre-emergence herbicide test; settings: Setaria viridis, pre-emergence; 0.25 lb/A; read-out: % plant inhibition
Outline: as §2

Birdseye Speedwell [28] = test: pre-emergence herbicide test; settings: pre-emergence, 0.25 lb/A; read-out: % plant inhibition
Outline: as §2

Downy Brome [29] = test: pre-emergence herbicide test; settings: Bromus tectorum, pre-emergence, 0.25 lb/A; read-out: % plant inhibition
Outline: as §2

Barnyardgrass [30] = test: pre-emergence herbicide test; settings: Echinochloa crus-galli, pre-emergence, 0.25 lb/A; read-out: % plant inhibition
Outline: as §2

Giant Foxtail [31] = test: pre-emergence herbicide test; settings: Setaria faberi, pre-emergence, 0.25 lb/A; read-out: % plant inhibition
Outline: as §2

Velvetleaf [32] = test: pre-emergence herbicide test; settings: Abutilon theophrasti, pre-emergence, 0.25 lb/A; read-out: % plant inhibition
Outline: as §2

Soybean [33] = test: pre-emergence herbicide test; settings: Glycine max, pre-emergence, 0.25 lb/A; read-out: % plant inhibition
Outline: as §2

Bedstraw Catchweed [34] = test: pre-emergence herbicide test; settings: Galium aparine, pre-emergence, 0.25 lb/A; read-out: % plant inhibition
Outline: as §2

Row | SMILES | inhibition at 280.212 g/ha (Rape [1]) [%] | inhibition at 280.212 g/ha (Wheat [2]) [%] | inhibition at 280.212 g/ha (Wild Oats [3]) [%] | inhibition at 280.212 g/ha (Cocklebur [4]) [%] | inhibition at 280.212 g/ha (Seedling Johnsongrass [5]) [%] | inhibition at 280.212 g/ha (Common Chickweed [6]) [%] | inhibition at 280.212 g/ha (Blackgrass [7]) [%] | inhibition at 280.212 g/ha (Corn [8]) [%] | inhibition at 280.212 g/ha (Morning Glory [9]) [%] | inhibition at 280.212 g/ha (Green Foxtail [10]) [%] | inhibition at 280.212 g/ha (Birdseye Speedwell [11]) [%] | inhibition at 280.212 g/ha (Downy Brome [12]) [%] | inhibition at 280.212 g/ha (Barnyardgrass [13]) [%] | inhibition at 280.212 g/ha (Giant Foxtail [14]) [%] | inhibition at 280.212 g/ha (Velvetleaf [15]) [%] | inhibition at 280.212 g/ha (Soybean [16]) [%] | inhibition at 280.212 g/ha (Bedstraw Catchweed [17]) [%] | inhibition at 280.212 g/ha (Rape [18]) [%] | inhibition at 280.212 g/ha (Wheat [19]) [%] | inhibition at 280.212 g/ha (Wild Oats [20]) [%] | also measured
1 | Cc1c(-c2cc(CS)c(Cl)cc2F)nn(C)c1C(F)(F)F [Compound 30] | 60 | 15 | 25 | 60 | 70 | 75 | 30 | 20 | 65 | 65 | 98 | 25 | 60 | 20 | 85 | 65 | 40 | 5 | 0 | 0 | inhibition at 280.212 g/ha (Cocklebur [21]): 25%; inhibition at 280.212 g/ha (Seedling Johnsongrass [22]): 95%; inhibition at 280.212 g/ha (Common Chickweed [23]): 35%; inhibition at 280.212 g/ha (Blackgrass [24]): 20%; inhibition at 280.212 g/ha (Corn [25]): 15%; inhibition at 280.212 g/ha (Morning Glory [26]): 20%; inhibition at 280.212 g/ha (Green Foxtail [27]): 98%; inhibition at 280.212 g/ha (Birdseye Speedwell [28]): 50%; inhibition at 280.212 g/ha (Downy Brome [29]): 5%; inhibition at 280.212 g/ha (Barnyardgrass [30]): 70%; inhibition at 280.212 g/ha (Giant Foxtail [31]): 25%; inhibition at 280.212 g/ha (Velvetleaf [32]): 90%; inhibition at 280.212 g/ha (Soybean [33]): 20%; inhibition at 280.212 g/ha (Bedstraw Catchweed [34]): 40%
2 | Cc1c(-c2cc(CSCC(C)C)c(Cl)cc2F)nn(C)c1C(F)(F)F [Compound 32] | 50 | 15 | 20 | 65 | 45 | 20 | 25 | 15 | 40 | 65 | 90 | 25 | 35 | 45 | 85 | 20 | 45 | 5 | 0 | 0 | inhibition at 280.212 g/ha (Cocklebur [21]): 25%; inhibition at 280.212 g/ha (Seedling Johnsongrass [22]): 85%; inhibition at 280.212 g/ha (Common Chickweed [23]): 5%; inhibition at 280.212 g/ha (Blackgrass [24]): 10%; inhibition at 280.212 g/ha (Corn [25]): 5%; inhibition at 280.212 g/ha (Morning Glory [26]): 10%; inhibition at 280.212 g/ha (Green Foxtail [27]): 40%; inhibition at 280.212 g/ha (Birdseye Speedwell [28]): 45%; inhibition at 280.212 g/ha (Downy Brome [29]): 0%; inhibition at 280.212 g/ha (Barnyardgrass [30]): 5%; inhibition at 280.212 g/ha (Giant Foxtail [31]): 65%; inhibition at 280.212 g/ha (Velvetleaf [32]): 25%; inhibition at 280.212 g/ha (Soybean [33]): 8%; inhibition at 280.212 g/ha (Bedstraw Catchweed [34]): 5%
3 | Cc1c(-c2cc(CSC(C)C)c(Cl)cc2F)nn(C)c1C(F)(F)F [Compound 29] | 100 | 12 | 75 | 90 | 90 | 95 | 70 | 20 | 90 | 95 | 100 | 70 | 90 | 65 | 99 | 90 | 100 | 15 | 0 | 15 | inhibition at 280.212 g/ha (Cocklebur [21]): 15%; inhibition at 280.212 g/ha (Seedling Johnsongrass [22]): 100%; inhibition at 280.212 g/ha (Common Chickweed [23]): 90%; inhibition at 280.212 g/ha (Blackgrass [24]): 40%; inhibition at 280.212 g/ha (Corn [25]): 30%; inhibition at 280.212 g/ha (Morning Glory [26]): 65%; inhibition at 280.212 g/ha (Green Foxtail [27]): 95%; inhibition at 280.212 g/ha (Birdseye Speedwell [28]): 70%; inhibition at 280.212 g/ha (Downy Brome [29]): 10%; inhibition at 280.212 g/ha (Barnyardgrass [30]): 80%; inhibition at 280.212 g/ha (Giant Foxtail [31]): 95%; inhibition at 280.212 g/ha (Velvetleaf [32]): 70%; inhibition at 280.212 g/ha (Soybean [33]): 20%; inhibition at 280.212 g/ha (Bedstraw Catchweed [34]): 70%
